{"source": "patent US7129258B2", "about": "“Substituted benzoxazoles as estrogenic agents” (priority 2001, dated 2006)", "key": {"[1]": {"test_system": "Sexually immature Sprague-Dawley rats (uterine weight)", "experiment": "Rat uterotrophic test procedure (Procedure 1)", "format": "in vivo", "conditions": "0.06 μg/rat s.c., days 19-21, alone"}, "[2]": {"test_system": "morphine-addicted rats", "experiment": "Rat hot flush test procedure (tail skin temperature after naloxone)", "format": "in vivo", "conditions": "0.3 mg/kg", "excerpt": "Rat Hot Flush Test Procedure\nThe effect of test compounds on hot flushes can be evaluated in a standard pharmacological test procedure which measures the ability of a test compound to blunt the increase in tail skin temperature which occurs as morphine-addicted rats are acutely withdrawn from the drug using naloxone [Merchenthaler, et al., Maturitas 30: 307–16 (1998)]. It can also be used to detect estrogen receptor antagonist activity by co-dosing test compound with the reference estrogen. The following data were obtained from representative compounds of the invention (Table (7))"}, "[3]": {"test_system": "Sexually immature 129 SvE mice (uterine weight)", "experiment": "Mouse uterotrophic test procedure (Procedure 2)", "format": "in vivo", "conditions": "50 mg/kg s.c., days 22-25"}, "[4]": {"test_system": "ovariectomized Sprague-Dawley rats (proximal tibia)", "experiment": "Bone mineral density in the ovariectomized rat", "format": "in vivo", "conditions": "5 weeks"}, "[5]": {"test_system": "casein kinase II mRNA in mammary fat pad", "experiment": "Mammary end bud test procedure (rat mammotrophic assay)", "format": "in vivo", "method": "Evaluation in the Mammary End Bud Test Procedure\nEstrogens are required for full ductal elongation and branching of the mammary ducts, and the subsequent development of lobulo-alveolar end buds under the influence of progesterone. In this test procedure, the mammotrophic activity of selected compounds of the invention was evaluated according to the following standard pharmacological test procedure. Twenty-eight day old Sprague-Dawley rats (Taconic Farms) were ovariectomized and rested for nine days. Animals were housed under a 12-hour light/dark cycle, fed a casein-based Purina Laboratory Rodent Diet 5K96 (Purina, Richmond, Ind.) and allowed free access to water. […] The following results were obtained for representative compounds of the invention (Table (8))."}, "[6]": {"test_system": "HLA-B27 rats", "experiment": "HLA rat test procedure for inflammatory bowel disease (stool score 3 = diarrhea, 2 = soft stool, 1 = normal stool; colon histology)", "format": "in vivo"}, "[7]": {"test_system": "Lewis rats, Freund's Adjuvant-Complete induced arthritis", "experiment": "Lewis rat adjuvant-induced arthritis, inhibition test procedure", "format": "in vivo", "conditions": "Inhibition protocol, s.c. daily from Day 1"}, "[8]": {"test_system": "Lewis rats, Freund's Adjuvant-Complete induced arthritis", "experiment": "Lewis rat adjuvant-induced arthritis, treatment test procedure", "format": "in vivo", "conditions": "Treatment protocol, s.c. daily, begun Day 8 after adjuvant injection"}, "[9]": {"test_system": "human endometrial tissue implanted into ovariectomized athymic nude mice", "experiment": "Endometriosis test procedure", "format": "in vivo, mouse", "conditions": "10 mg/kg oral daily", "method": "Evaluation in an Endometriosis Standard Pharmacologic Test Procedure This procedure is slightly modified from a published method [Bruner-Tran. et al., Journal of Clinical Investigation 99: 2851–2857. (1997)]. […] Lesions are allowed to establish for at least 10 days, then oral daily dosing begins and continues for at least 15 days. It should be noted that all mice have visible lesions at the start of dosing. At necropsy the number of mice with lesions is determined as well as the lesions per mouse."}, "[10]": {"conditions": "Study C colon histology, oral 7 weeks, 10 mg/kg days 1–18 then 20 mg/kg, mean ± SD"}, "[11]": {"conditions": "Study C colon histology, oral 7 weeks, 10 mg/kg days 1–24 then 20 mg/kg, mean ± SD"}, "[12]": {"conditions": "Study B colon histology, oral 4 weeks, 10 mg/kg days 1–14 then 20 mg/kg, mean ± SD"}}, "note": "Several values for one entry are separate records, joined by “and”; a condition that tells them apart may be missing. Identical values can stand only once. Marks after values point to notes of the source that are not given here.", "data": [{"smiles": "C#C[C@]1(O)CC[C@H]2[C@@H]3CCc4cc(O)ccc4[C@H]3CC[C@@]21C", "note": "[17α-ethinyl, 17β-estradiol, 17α-ethinyl-17β-estradiol]", "values": [{"measurement": "mean uterine weight ± SEM", "setting": "[1]", "result": "104.7 ± 5.4 mg and 85.5 ± 3.1 mg"}, {"measurement": "Temperature change 15 minutes after naloxone injection (mean ± SEM)", "setting": "[2]", "result": "2.12 ± 1.14"}]}, {"smiles": "C[C@]12CC[C@@H]3c4ccc(O)cc4CC[C@H]3[C@@H]1CC[C@@H]2O", "note": "[17β-estradiol]", "values": [{"measurement": "mean uterine weight ± SEM", "setting": "[3]", "result": "41.9 ± 2.9 mg and 40.0 ± 2.0 mg and 35.6 ± 4.4 mg and 40.5 ± 5.84 mg and 42.9 ± 4.8 mg and 41.7 ± 3.6 mg"}, {"measurement": "Total Bone Mineral Density (mean ± SEM)", "setting": "[4]; 2 μg/rat s.c.", "result": "639.49 ± 14.47", "unit": "mg/mL"}, {"measurement": "Trabecular Bone Mineral Density (mean ± SEM)", "setting": "[4]; 2 μg/rat s.c.", "result": "453.28 ± 24.93", "unit": "mg/mL"}, {"measurement": "Casein kinase II mRNA/18 S rRNA (mean ± SEM)", "setting": "[5]; 0.1 mg/kg s.c. + Progesterone (30 mg/kg)", "result": "39.0 ± 5.36"}]}, {"smiles": "Oc1cc(Br)c2oc(-c3ccc(O)c(F)c3)nc2c1", "note": "[Example 21, 7-Bromo-2-(3-fluoro-4-hydroxyphenyl)-1,3-benzoxazol-5-ol]", "values": [{"measurement": "Total Bone Mineral Density (mean ± SEM)", "setting": "[4]; 10 mg/kg s.c.", "result": "501.40 ± 11.97", "unit": "mg/mL"}, {"measurement": "Trabecular Bone Mineral Density (mean ± SEM)", "setting": "[4]; 10 mg/kg s.c.", "result": "312.34 ± 19.73", "unit": "mg/mL"}, {"measurement": "Fibrosis (0–2)", "setting": "[6]; [10]", "result": "0.56 ± 0.32"}, {"measurement": "Lesion depth (0–2)", "setting": "[6]; [10]", "result": "0.75 ± 0.50"}, {"measurement": "Ulceration (0–2)", "setting": "[6]; Study C colon histology, oral 7 weeks, 10 mg/kg then 20 mg/kg, mean ± SD", "result": "0.81 ± 0.47"}, {"measurement": "scores on all disease parameters vs vehicle-treated rats (in words)", "setting": "[6]; Study C, oral, 10 mg/kg then 20 mg/kg", "result": "not statistically significant, were lower"}]}, {"smiles": "C=Cc1cc(O)cc2nc(-c3ccc(O)c(F)c3)oc12", "note": "[Example 24, 2-(3-Fluoro-4-hydroxyphenyl)-7-vinyl-1,3-benzoxazol-5-ol]", "values": [{"measurement": "Casein kinase II mRNA/18 S rRNA (mean ± SEM)", "setting": "[5]; 20 mg/kg s.c. + Progesterone (30 mg/kg)", "result": "3.98 ± 0.79"}, {"measurement": "Stool quality (in words)", "setting": "[6]; Study A, 50 mg/kg s.c. once per day", "result": "improved"}, {"measurement": "Fibrosis (0–2)", "setting": "[6]; [11]", "result": "0*"}, {"measurement": "Inflammation (0–3)", "setting": "[6]; [11]", "result": "0.69 ± 0.24"}, {"measurement": "Lesion depth (0–2)", "setting": "[6]; [11]", "result": "0*"}, {"measurement": "Total score", "setting": "[6]; [11]", "result": "0.69 ± 0.24"}, {"measurement": "Ulceration (0–2)", "setting": "[6]; [11]", "result": "0*"}, {"measurement": "total disease score, intestinal histology (in words)", "setting": "[6]; Study C, oral, 10 mg/kg days 1–24 then 20 mg/kg", "result": "significantly reduced"}, {"measurement": "measurements of tissue injury, colon histology (in words)", "setting": "[6]; composite of two subcutaneous dosing studies, including Study A", "result": "effective in reducing several measurements of tissue injury"}, {"measurement": "Joint inflammation score (maximal score per day 12)", "setting": "[7]; Day 1", "result": 0.00}, {"measurement": "Joint inflammation score (maximal score per day 12)", "setting": "[7]; Day 2", "result": 1.00}, {"measurement": "Joint inflammation score (maximal score per day 12)", "setting": "[7]; Day 3", "result": 4.50}, {"measurement": "Joint inflammation score (maximal score per day 12)", "setting": "[7]; Day 15", "result": 3.00}, {"measurement": "Joint inflammation score (maximal score per day 12)", "setting": "[7]; Day 17", "result": 1.50}, {"measurement": "Joint inflammation score (maximal score per day 12)", "setting": "[8]; Day 4", "result": 9.50}, {"measurement": "Joint inflammation score (maximal score per day 12)", "setting": "[8]; Day 5", "result": 8.00}, {"measurement": "Joint inflammation score (maximal score per day 12)", "setting": "[8]; Day 6", "result": 7.00}, {"measurement": "Joint inflammation score (maximal score per day 12)", "setting": "[8]; Day 9", "result": 3.50}, {"measurement": "Joint inflammation score (maximal score per day 12)", "setting": "[8]; Day 17", "result": 2.00}, {"measurement": "lesions at necropsy compared with mice dosed with vehicle", "setting": "[9]; evaluated three times", "result": "fewer lesions"}, {"measurement": "lesions found per animal (mice with lesions)", "setting": "[9]; Study 1", "result": "one"}, {"measurement": "mice with lesion regression", "setting": "[9]; Study 1", "result": "four of six"}, {"measurement": "mice with any lesions at necropsy", "setting": "[9]; Study 1, all mice had lesions at start of dosing", "result": "two of six"}]}, {"smiles": "C=Cc1cc(O)cc2nc(-c3ccc(O)cc3F)oc12", "note": "[Example 25, 2-(2-Fluoro-4-hydroxyphenyl)-7-vinyl-1,3-benzoxazol-5-ol]", "values": [{"measurement": "Fibrosis (0–2)", "setting": "[6]; [12]", "result": "0.31 ± .13"}, {"measurement": "Inflammation (0–3)", "setting": "[6]; [12]", "result": "1.50 ± 0.35"}, {"measurement": "Lesion depth (0–2)", "setting": "[6]; [12]", "result": "0.44 ± 0.24"}, {"measurement": "Ulceration (0–2)", "setting": "[6]; [12]", "result": "0.44 ± 0.24"}]}, {"smiles": "C=Cc1cc(O)cc2nc(-c3ccc(O)cc3)oc12", "note": "[Example 27, 2-(4-Hydroxyphenyl)-7-vinyl-1,3-benzoxazol-5-ol]", "values": [{"measurement": "Joint inflammation score (maximal score per day 12)", "setting": "[8]; Day 8", "result": 5.00}, {"measurement": "Joint inflammation score (maximal score per day 12)", "setting": "[8]; Day 15", "result": 2.00}, {"measurement": "Joint inflammation score (maximal score per day 12)", "setting": "[8]; Day 16", "result": 2.00}, {"measurement": "Joint inflammation score (maximal score per day 12)", "setting": "[8]; Day 17", "result": 1.50}]}, {"smiles": "C=C(Br)c1cc(O)cc2nc(-c3ccc(O)cc3F)oc12", "note": "[Example 32, 7-(1-Bromovinyl)-2-(2-fluoro-4-hydroxyphenyl)-1,3-benzoxazol-5-ol]", "values": [{"measurement": "Joint inflammation score (maximal score per day 12)", "setting": "[8]; Day 1", "result": 11.33}, {"measurement": "Joint inflammation score (maximal score per day 12)", "setting": "[8]; Day 2", "result": 10.83}, {"measurement": "Joint inflammation score (maximal score per day 12)", "setting": "[8]; Day 3", "result": 9.33}, {"measurement": "Joint inflammation score (maximal score per day 12)", "setting": "[8]; Day 4", "result": 8.00}, {"measurement": "Joint inflammation score (maximal score per day 12)", "setting": "[8]; Day 5", "result": 5.83}, {"measurement": "Joint inflammation score (maximal score per day 12)", "setting": "[8]; Day 6", "result": 3.33}, {"measurement": "Joint inflammation score (maximal score per day 12)", "setting": "[8]; Day 7", "result": 3.00}, {"measurement": "Joint inflammation score (maximal score per day 12)", "setting": "[8]; Day 8", "result": 2.50}, {"measurement": "Joint inflammation score (maximal score per day 12)", "setting": "[8]; Day 9", "result": 2.50}, {"measurement": "Joint inflammation score (maximal score per day 12)", "setting": "[8]; Day 10", "result": 2.50}, {"measurement": "Joint inflammation score (maximal score per day 12)", "setting": "[8]; Day 11", "result": 2.50}, {"measurement": "Joint inflammation score (maximal score per day 12)", "setting": "[8]; Day 12", "result": 2.50}, {"measurement": "Joint inflammation score (maximal score per day 12)", "setting": "[8]; Day 13", "result": 2.50}, {"measurement": "Joint inflammation score (maximal score per day 12)", "setting": "[8]; Day 14", "result": 2.50}, {"measurement": "Joint inflammation score (maximal score per day 12)", "setting": "[8]; Day 15", "result": 2.00}, {"measurement": "Joint inflammation score (maximal score per day 12)", "setting": "[8]; Day 16", "result": 1.33}, {"measurement": "Joint inflammation score (maximal score per day 12)", "setting": "[8]; Day 17", "result": 1.00}]}]}
